{"source": "paper PMC5238392", "about": "“Origin of anti-tumor activity of the cysteine-containing GO peptides and further optimization of their cytotoxic properties” (Scientific Reports, 2017)", "key": {"HT-1080 cells [1]": {"system": "HT-1080 cells", "test": "Caspase 3/7 activation assay (CellEvent / SYTOX), HT-1080", "format": "cell-based, human", "conditions": "10 μM, 4 h, Fig. 4B", "excerpt": "A complementary perspective on GO-203-induced apoptosis is provided by the caspase 3/7 activation assay, Fig. 4. In both HT-1080 and ZR-75-1, the data offer a clear view of the early and late apoptotic populations. The time dependence illustrated in Fig. 4E,F confirms that the onset of apoptosis occurs sufficiently rapidly in both cell lines – by the time of flow-cytometry observations the system has already approached the steady state. In the literature there is some evidence that activation of executioner caspases may precede the translocation of phosphatidylserine to the outer leaf of the membrane. While this could be in principle relevant for comparison between the Annexin V assay and caspase activation assay, one should bear in mind that in our case both assays offer a snapshot of a fairly advanced apoptotic process.\nFigure 4 GO-203-induced apoptosis in HT-1080 and ZR-75-1 cells as assessed by the double staining with CellEvent caspase-3/7 green detection reagent and vital dye SYTOX. (A–D) Flow cytometry histograms for the cells incubated for 4 h with 10 μM of GO-203 and the untreated (control) cells. (E–G) Apoptotic fractions in the GO-203-treated and untreated (control) cells as a function of incubation time and GO-203 concentration. TEXT PRINTED IN THE PICTURE: (B) GO-203: HT-1080: IV.(0.11 %); HT-1080: III.(64.49 %); HT-1080: I.(12.21 %); HT-1080: II.(23.20 %) | (D) GO-203: ZR-75-1: IV.(0.40 %); ZR-75-1: III.(35.18 %); ZR-75-1: I.(28.95 %); ZR-75-1: II.(35.47 %)\n(§1) The adherent cells were rinsed with PBS, harvested using trypsin-EDTA solution and suspended in the growth medium. To analyze cell cycle phase distribution, 200 μg/ml of saponin (Fluka, USA), 250 μg/ml RNase A, and 50 μg/ml of propidium iodide (both Sigma-Aldrich, USA) were added to each sample tube, thus obtaining DNA stain buffer. After 1 h incubation at room temperature, the samples were analyzed by flow cytometry. To detect apoptosis by flow cytometry, CellEvent Caspase-3/7 Green Flow Cytometry Assay Kit (Thermo Fisher Scientific, USA) and Annexin-V FITC conjugate (BD Biosciences, USA) in combination with propidium iodide have been employed following the manufacturer’s protocols.\nCell fluorescence was measured using CytoFLEX (Beckman Coulter, USA) flow cytometer equipped with 3 lasers (405, 488 and 633 nm). Cells were gated on FSC/SSC to remove debris. Mean fluorescence intensity from 10,000 cells was acquired."}, "HT-1080 cells [2]": {"system": "HT-1080 cells", "test": "Cell cycle phase distribution, HT-1080", "format": "cell-based, human", "conditions": "24 h incubation with 5 μM", "procedure": "The onset and the progression of the apoptosis are relatively fast, on the time scale of 1 h. […] Indeed, the cell cycle phase distribution remains unaffected by addition of the peptide. For example, in the untreated (control) HT-1080 sample the distribution between G0/G1, S, and G2/M phases is 52%, 23% and 26%, respectively. After 24 h incubation with 5 μM GO-203 this proportion is essentially unchanged at 50%, 24%, and 27%.\nas §1\nFigure S2. Cell cycle distribution for (A) HT-1080 cells treated with one-time dose of 5 μM GO-203 and (B) ZR-75-1 cells treated with one-time dose of 10 μM GO-203. The peptide concentrations have been chosen such as to induce significant cytotoxic effect without causing massive cell death. The data were taken 24 h after the application of the peptide.\nFigure S3. H2DCFDA/DCFDA experiment to assess the level of ROS in (A) HT-1080 cells after 30 min incubation with 5 μM GO-203 and (B) ZR-75-1 cells after 30 min incubation with 10 μM GO-203. A statistically significant difference in the intensity of DCF fluorescence response is marked by an asterisk. […]"}, "ZR-75-1 cell line": {"system": "ZR-75-1 cell line", "test": "H2DCFDA intracellular ROS measurement, ZR-75-1", "format": "cell-based, human", "conditions": "10 μM, 30 min incubation, control 100 ± 11, mean and SD, below statistical significance", "procedure": "Having established these premises, we repeated the measurements using the ROS-sensitive probe H2DCFDA instead of DCFDA. We have observed small, but statistically significant difference between the HT-1080 cells treated by GO-203 and control cells. Specifically, 30 min after application of the peptide the fluorescence signal from the treated cells was ca. 20% lower than the control, 82 ± 6 vs. 100 ± 7 (arbitrary units). The drop in fluorescence from cells that have been treated with GO-203 should be unequivocally attributed to the decreased level of ROS. The effect is small and unlikely to be the source of GO-203 cytotoxic activity. […] The detected drop in ROS level was below the level of statistical significance, 98 ± 3 vs. 100 ± 11 (see Fig. S3). […]\nThe cells were seeded into 35-mm Nunc culture dishes (Thermo Scientific, USA) at 1.2 × 10^5 cells per dish and allowed to attach for 24 h. […] After that GO-203 was added directly to the suspension and cell fluorescence was measured by flow cytometry at multiple time points during the following 2 hours. […] Cell fluorescence was then immediately measured by flow cytometry. […]\nCell fluorescence was measured using CytoFLEX (Beckman Coulter, USA) flow cytometer equipped with 3 lasers (405, 488 and 633 nm). […] Mean fluorescence intensity from 10,000 cells was acquired. […]"}, "ZR-75-1": {"system": "ZR-75-1", "test": "Rhodamine 123 mitochondrial membrane potential, ZR-75-1", "format": "cell-based, human", "conditions": "30 min after application, same scheme as H2DCFDA/DCFDA measurements", "procedure": "Finally, the same experimental scheme as described above for H2DCFDA/DCFDA measurements was also used with Rhodamine 123. […] The same observation has been made for ZR-75-1.\nThe cells were seeded into 35-mm Nunc culture dishes (Thermo Scientific, USA) at 1.2 × 10^5 cells per dish and allowed to attach for 24 h. To monitor intracellular ROS in a time-dependent manner, the cells were incubated for 30 min with 10 μM of carboxy-H2DCFDA (Invitrogen, USA), then harvested with trypsin-EDTA and suspended in a fresh medium. After that GO-203 was added directly to the suspension and cell fluorescence was measured by flow cytometry at multiple time points during the following 2 hours. The same procedure was used for mitochondria-specific fluorescent dye Rhodamine 123 (Thermo Fisher Scientific, USA), which was added to a concentration of 5 μM. The complementary side scatter measurements were conducted using 488 nm laser light. In another series of experiments, we have used the related indicator of oxidative stress, H2DCFDA (Invitrogen, USA). The experiment started by adding GO-203 to the cell growth medium; then 10 min later 5 μM of H2DCFDA has been added. After 20 min incubations with H2DCFDA, the cells were harvested with trypsin-EDTA and suspended in a fresh medium. Cell fluorescence was then immediately measured by flow cytometry. […]"}, "[3]": {"system": "human breast carcinoma cell line ZR-75-1", "test": "MTS cell viability assay, ZR-75-1", "protocol": "As a next step, we used MTS assay[27] to examine the effect of GO peptides on the viability of the four described cell cultures as a function of different treatment schemes. […] This treatment regimen is labeled 4 × 5 underneath the graph. Alternatively, we introduced 5 μM of peptide daily while exchanging the medium (denoted 4/5). Unlike the previous protocol, it avoids potential build-up of the peptide in the medium.\nThe treatment protocols are: 4 × 5 – four daily doses of 5 μM delivered without exchanging the growth medium; 4/5 – four daily doses of 5 μM delivered with exchanged growth medium; 1 × 5, 1 × 10, 1 × 15, and 1 × 20 – a single dose of 5, 10, 15, or 20 μM, respectively. MTS reagent was added to the wells 96 h after the first (and sometimes the only) application of the peptide and the optical density at 492 nm was measured to determine the fraction of the surviving cells.\nThe data are according to the MTS assay, where the optical density was measured 96 h after the application of the peptide.\nCell survival was measured using CellTiter 96 AQueous One Solution Cell Proliferation Assay (MTS test, Promega, USA). Cells have been seeded in a 96-well flat-bottom plate in 100 μl of culture medium (10^3 cells/well for A549, HT-1080, dermal fibroblasts and eMSC or 5 × 10^3 cells/well for ZR-75-1) and allowed to attach for 24 h. The starting amount of cells was chosen to account for their growth rate and degree of spreading such as to avoid excessive dilution in the beginning of the experiment or control cell overgrowth toward the end. After 24 h, 10 μl of peptide stock solution or PBS (control) were added to the wells. After 96 h, 20 μl of the MTS-reagent were added to each well and 1–2 h later optical density was measured at the wavelength 492 nm using the 96-well plate reader (Titertek Multiskan, Labsystems, Finland). All experiments were conducted in duplicate or triplicate."}}}
{"substance": "[R]9CQCRRKN [GO-203]", "values": [{"measurement": "quadrant I fraction (caspase-3/7 / SYTOX)", "setting": "HT-1080 cells [1]", "value": 12.21, "unit": "%"}, {"measurement": "quadrant II fraction (caspase-3/7 / SYTOX)", "setting": "HT-1080 cells [1]", "value": 23.20, "unit": "%"}, {"measurement": "quadrant III fraction (caspase-3/7 / SYTOX)", "setting": "HT-1080 cells [1]", "value": 64.49, "unit": "%"}, {"measurement": "quadrant IV fraction (caspase-3/7 / SYTOX)", "setting": "HT-1080 cells [1]", "value": 0.11, "unit": "%"}, {"measurement": "cells in S phase", "setting": "HT-1080 cells [2]; control 23%", "value": 24, "unit": "%"}, {"measurement": "cells in G2/M phase", "setting": "HT-1080 cells [2]; control 26%", "value": 27, "unit": "%"}, {"measurement": "cells in G0/G1 phase", "setting": "HT-1080 cells [2]; control 52%", "value": 50, "unit": "%"}, {"measurement": "H2DCFDA fluorescence signal (ROS level)", "setting": "ZR-75-1 cell line", "value": "98 ± 3", "unit": "arbitrary units"}, {"measurement": "Mitochondrial membrane potential (Rhodamine 123)", "setting": "ZR-75-1", "value": "fully maintained"}, {"measurement": "Cell viability (MTS)", "setting": "[3]; 1 × 5: single dose of 5 μM, 96 h", "value": "essentially inconsequential"}, {"measurement": "Cell viability (MTS)", "setting": "[3]; 1 × 20: single dose of 20 μM, 96 h", "value": "substantially cytotoxic"}, {"measurement": "Cell viability (MTS)", "setting": "[3]; 4/5: four daily doses of 5 μM with exchanged growth medium, 96 h", "value": "inefficient"}, {"measurement": "Cell viability (MTS)", "setting": "[3]; 4 × 5: four daily doses of 5 μM without exchanging growth medium, OD 492 nm 96 h after first application", "value": "considerable damage"}]}
